Key:
[1] = test system: Erythromycin-resistant L. pneumophila; type: cell-based, Legionella pneumophila
[2] = test system: Erythromycin-resistant Legionella spp. other than L. pneumophila; type: cell-based

| Structure (SMILES) | Mean PAE [1] | Mean PAE [2] | PAE (mean PAE) [1] | PAE [1] |
| --- | --- | --- | --- | --- |
| CC1COc2c(N3CCN(C)CC3)c(F)cc3c(=O)c(C(=O)O)cn1c23 (centres unmarked) [Ofloxacin] | 2.99 ± 1 h | 4.13 ± 2 h | – | – |
| CC[C@H]1OC(=O)[C@H](C)[C@@H](O[C@H]2C[C@@](C)(OC)[C@@H](O)[C@H](C)O2)[C@H](C)[C@@H](O[C@@H]2O[C@H](C)C[C@H](N(C)C)[C@H]2O)[C@](C)(O)C[C@@H](C)C(=O)[C@H](C)[C@@H](O)[C@]1(C)O [Erythromycin] | 0.90 ± 1 h | 0.44 ± 1 h | – | – |
| O=C(O)c1cn(C2CC2)c2cc(N3CCNCC3)c(F)cc2c1=O [Ciprofloxacin] | 2.86 ± 2 h | 2.13 ± 3 h | – | – |
| Cc1c(F)c(N2CCNC(C)C2)cc2c1c(=O)c(C(=O)O)cn2C1CC1 (centres unmarked) [Grepafloxacin] | 4.18 ± 3 h | 3.67 ± 1 h | 4.18 h | – |
| N[C@@H]1[C@H]2CN(c3nc4c(cc3F)c(=O)c(C(=O)O)cn4-c3ccc(F)cc3F)C[C@@H]12 [Trovafloxacin] | 2.83 ± 2 h | 2.25 ± 2 h | 2.83 h | – |
| CC[C@H]1OC(=O)[C@H](C)[C@@H](O[C@H]2C[C@@](C)(OC)[C@@H](O)[C@H](C)O2)[C@H](C)[C@@H](O[C@@H]2O[C@H](C)C[C@H](N(C)C)[C@H]2O)[C@](C)(O)C[C@@H](C)CN(C)[C@H](C)[C@@H](O)[C@]1(C)O [Azithromycin] | 2.16 ± 1 h | 2.13 ± 1 h | – | – |
| COc1c(N2C[C@@H]3CCCN[C@@H]3C2)c(F)cc2c(=O)c(C(=O)O)cn(C3CC3)c12 [Moxifloxacin] | 3.38 ± 2 h | 2.02 ± 1 h | 3.38 h | – |
| C[C@H]1COc2c(N3CCN(C)CC3)c(F)cc3c(=O)c(C(=O)O)cn1c23 [Levofloxacin] | 2.59 ± 2 h | 3.24 ± 1 h | – | 2.59 h |
| CO/N=C1\CN(c2nc3c(cc2F)c(=O)c(C(=O)O)cn3C2CC2)CC1CN (racemic) [Gemifloxacin, (R,S)-7-(3-aminomethyl-4-methoxyiminopyrrolidin-1-yl)-1-cyclopropyl-6-fluoro-4-oxo-1,4-dihydro-1,8-naphthyridine-3-carboxylic acid] | 4.65 ± 3 h | 3.34 ± 2 h | 4.65 h | – |
| CC[C@H]1OC(=O)[C@H](C)[C@@H](O[C@H]2C[C@@](C)(OC)[C@@H](O)[C@H](C)O2)[C@H](C)[C@@H](O[C@@H]2O[C@H](C)C[C@H](N(C)C)[C@H]2O)[C@](C)(OC)C[C@@H](C)C(=O)[C@H](C)[C@@H](O)[C@]1(C)O [Clarithromycin] | 1.90 ± 1 h | 1.60 ± 2 h | – | 1.9 h |
| CO[C@H]1/C=C/O[C@@]2(C)Oc3c(C)c(O)c4c(O)c(c(/C=N/N5CCN(C)CC5)c(O)c4c3C2=O)NC(=O)/C(C)=C\C=C\[C@H](C)[C@H](O)[C@@H](C)[C@@H](O)[C@@H](C)[C@H](OC(C)=O)[C@@H]1C [Rifampicin] | 0.93 ± 4 h | 5.6 ± 3 h | – | 0.9 h |
